Columns and labels:
purified human ERO1α [1] = target: T1, purified human ERO1α (Homo sapiens, UniProt Q96HE7, C104A/C131A/C166A); assay: Recombinant ERO1α enzyme assay (Amplex Red); format: biochemical; settings: ratio of enzyme IC50 values
T1 construct: made in house
T1 sequence (Q96HE7 22-468 C104A/C131A/C166A): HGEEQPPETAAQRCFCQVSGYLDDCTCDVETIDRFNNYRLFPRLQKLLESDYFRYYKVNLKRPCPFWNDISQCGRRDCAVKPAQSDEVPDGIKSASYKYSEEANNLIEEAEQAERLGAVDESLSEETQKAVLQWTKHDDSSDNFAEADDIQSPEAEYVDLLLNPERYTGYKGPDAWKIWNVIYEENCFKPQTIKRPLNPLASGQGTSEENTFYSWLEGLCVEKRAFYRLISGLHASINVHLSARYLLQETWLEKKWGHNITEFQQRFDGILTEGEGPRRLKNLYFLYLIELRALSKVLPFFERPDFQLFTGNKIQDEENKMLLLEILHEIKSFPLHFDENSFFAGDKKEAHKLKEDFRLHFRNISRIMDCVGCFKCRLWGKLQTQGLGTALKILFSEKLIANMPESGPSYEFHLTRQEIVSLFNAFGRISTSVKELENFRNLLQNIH
Method: Based on previous work which established an aurone chemical class of compounds as FAD containing enzyme inhibitors^37, we evaluated sulfuretin analogs for ERO1α enzyme inhibition.
Quantification of enzymatic activity of ERO1α was performed using the Amplex Red as previously described^6.

purified human ERO1α [2] = target: T1, purified human ERO1α; assay: Lineweaver-Burk enzyme kinetics with varying PDI (Amplex Red); format: biochemical; settings: varying PDI and T151742 concentrations
recombinant ERO1α = target: T2, recombinant ERO1α (Homo sapiens, UniProt Q96HE7, C104A/C131A/C166A); assay: Surface plasma resonance (Biacore) binding; settings: SPR
T2 construct: made in house
T2 sequence (Q96HE7 22-468 C104A/C131A/C166A): T1 sequence (Q96HE7 22-468 C104A/C131A/C166A)
Method: Surface plasma resonance (SPR) was utilized as an orthogonal assay to confirm direct binding between T151742 and ERO1α. For the SPR assay, recombinant ERO1α was crosslinked to a C5 chip and varying concentrations of ligand T151742 were evaluated for detection of changes in refractive index, due to change in mass on the chip when ligand is bound to the protein. […] The relatively high Kd value is in part due to the fast off-rate.
Cell Lines: PC-9 cell line used was obtained from Sigma Aldrich and grown in RPMI 1640 medium with 10% fetal bovine serum and 1% penicillin/streptomycin. HCC4006, U266, MM1.s, and Beas-2B cell lines were obtained from ATCC and cultured in either RPMI 1640 or DMEM with 10% fetal bovine serum and 1% penicillin/streptomycin. […] Plate was then read on the BioTek Cytation 5 at 530/590 nm. […] Plate was then read at 570 nm. Treated wells were all compared to DMSO control wells to calculate percent growth inhibition and the IC50 was calculated using GraphPad (log(inhibitor) vs growth inhibition). […] Images were then quantified using ImageJ. […] Cells were aliquoted at 1 million cells per PCR tube in PBS and heated in Bio-Rad T100 thermal cycler at indicated temperatures (RT, 46° C., 48° C., 50° C., 52° C., 54° C., 56°, 58° C., and 60° C.) for 3 minutes and aggregation temperature was determined by western blot analysis. […]

CN(C)c1ccc(/C=C2\Oc3cc(O)ccc3C2=O)cc1 [Compound T151742]
fold more potent compared to EN-460 (purified human ERO1α [1]): approximately 2 fold
mechanism of inhibition of ERO1α (purified human ERO1α [2]): non-competitive (mixed) inhibitor
off-rate (recombinant ERO1α): fast off-rate
